Read-outs that look alike come from different tables or passages of the source.
How the values were obtained:
[1] = system: other PAK family members (PAK2, PAK3, PAK4, PAK6, PAK7); test: Inhibitory activity against other PAK family members; assay type: biochemical; conditions: in words
Experimental: A cell-based small molecule screening with 50,024 compounds was performed based on AML cell lines that grow in a PAK1-dependent manner, which has been previously described (Pandolfi et al., 2015). This was followed by single point PAK1 enzymatic activity screening against 360 compounds. Forty-six identified compounds that scored positive in this assay were subjected to enzymatic activity assays against other PAK family kinases including PAK2, PAK3, PAK4, PAK6, and PAK7. […] Those compounds were studied in further detail and key biochemical, pharmacokinetic, and structure-activity characteristics were determined.

[2] = Microsomal stability, rat (RLM); assay type: in vitro ADME; conditions: rat microsomes; for microsomal CLint / half-life: liver microsomes; for half-life: read-out: t½; for CLh: in mL/min/kg (unit assumed)
[3] = Microsomal stability, mouse (MLM); assay type: in vitro ADME; conditions: for microsomal CLint / half-life: liver microsomes; for half-life: read-out: t½; for ER / CLh: mouse microsomes; for CLh: in mL/min/kg (unit assumed)
PAK1 = PAK1 (Homo sapiens, UniProt Q13153); test: PAK1 IC50 determination, Z'-LYTE kinase assay; assay type: biochemical; conditions: [ATP]=10×Km; [PAK1]=1 ng; read-out: IC50 against PAK1
Experimental: Protocol for determining IC50 Values for test compounds at [ATP]=10×Km; [PAK1]=1 ng
Add 2 ml 5× Kinase Buffer to 8 ml water to prepare […] of Kinase Buffer A.
• Thaw the concentrated stock of test compound at room temperature. • 2.1. Add 10 μl of 100% DMSO to row A, columns 2-11 (wells A2-A11) in a 96-well assay plate (non-binding surface). To well A1, add 15 μl of the concentrated stock of test compound. This will be the highest concentration of test compound in a 10-point titration curve. Use a concentration that is 100× the final desired 1× concentration per 10 μl kinase reaction. For example, if the final 1× concentration of 100 μM is desired for the highest concentration of test compound in the 10 point titration curve, add 15 μl of 10 mM test compound to well A1. • 2.2. Titrate the 100× test compound three-fold across the assay plate from well A1 to well A10. To perform this threefold titration, transfer 5 μl of the 100× test compound from well A1 to the 10 μl of 100% DMSO in well A2. Repeat for wells A2-A10. Discard the final 5 μl from well A10 so that all wells contain 10 μl. […] This completes the 10-point three-fold titration of test compound at 100× concentration. • 2.3. Transfer a 2 μl aliquot of the 100× test compound titration series from each well in row A of the 96-well assay plate (wells A1-A12) to row B (wells B1-B12). Add 48 μl of complete kinase reaction buffer to each well in row B to dilute the 100× three-fold titration series of test compound to 4× (the DMSO will also be diluted, to 4%). • 2.4. Transfer 2.5 μl of the 4× concentrated three-fold titration series of test compound from row B of the 96-well assay plates to quadruplicate wells of a 384-well assay plate. Each well in columns 21-24 should contain 2.5 μl of 4% DMSO (no compound) in complete kinase reaction buffer. This 2.5 μl addition of 4× test compound in 4% DMSO produces a 1× concentration of test compound in 1% DMSO for a 10 μl kinase reaction. • 2.5. Dispense 2.5 μl of complete kinase reaction buffer to each well in columns 23-24 of the 384-well assay plate.
• 1. Prepare 500 μl of 4 μM Z′-LYTE® Phospho-peptide by adding 2 μl of 1 mM Z′-LYTE® Phospho-peptide to 498 μl of complete kinase reaction buffer. • 2. Dispense 5 μl of the 4 μM Z′-LYTE® Phospho-peptide (2×) to each well in column 24 of the 384-well assay plate. • 3. Prepare 1000 μl of 4 μM Z′-LYTE® Peptide Substrate (2×)/2× kinase solution in complete kinase reaction buffer. If necessary, prepare an intermediate dilution of the kinase in complete kinase reaction buffer before preparing the Z′-LYTE™ Peptide Substrate (2×)/2× kinase solution. Use the appropriate 2× kinase concentration in the assay to phosphorylate 20-50% of the 0% inhibition controls at the ATP concentration desired. • 4. […]

[4] = Microsomal stability, human (HLM); assay type: in vitro ADME; conditions: human microsomes; for CLh: in mL/min/kg (unit assumed); for microsomal CLint / half-life: liver microsomes; for half-life: read-out: t½
larger kinase panel = test: Selectivity against a larger kinase panel; assay type: binding; conditions: in words
[5] = Pharmacokinetic (PK) assessment in rats; assay type: in vivo; conditions: for MRT last: read-out: MRTlast; for half-life: read-out: T ½ (converted)
[6] = rat, plasma, PO, 10 mg/kg, mean
[7] = rat, plasma, iv, 2 mg/kg, IV, 2 mg/kg, mean, read-out: AUCINF
[8] = rat, plasma, iv, 2 mg/kg, IV, 2 mg/kg, mean, read-out: AUClast
[9] = rat, plasma, iv, 2 mg/kg, IV, 2 mg/kg, mean, read-out: Vss
[10] = rat, plasma, iv, 2 mg/kg, IV, 2 mg/kg, mean, read-out: Vz
[11] = rat, plasma, po, 10 mg/kg, PO, 10 mg/kg, mean, read-out: AUClast

PAK1, sequence (Q13153 whole entry): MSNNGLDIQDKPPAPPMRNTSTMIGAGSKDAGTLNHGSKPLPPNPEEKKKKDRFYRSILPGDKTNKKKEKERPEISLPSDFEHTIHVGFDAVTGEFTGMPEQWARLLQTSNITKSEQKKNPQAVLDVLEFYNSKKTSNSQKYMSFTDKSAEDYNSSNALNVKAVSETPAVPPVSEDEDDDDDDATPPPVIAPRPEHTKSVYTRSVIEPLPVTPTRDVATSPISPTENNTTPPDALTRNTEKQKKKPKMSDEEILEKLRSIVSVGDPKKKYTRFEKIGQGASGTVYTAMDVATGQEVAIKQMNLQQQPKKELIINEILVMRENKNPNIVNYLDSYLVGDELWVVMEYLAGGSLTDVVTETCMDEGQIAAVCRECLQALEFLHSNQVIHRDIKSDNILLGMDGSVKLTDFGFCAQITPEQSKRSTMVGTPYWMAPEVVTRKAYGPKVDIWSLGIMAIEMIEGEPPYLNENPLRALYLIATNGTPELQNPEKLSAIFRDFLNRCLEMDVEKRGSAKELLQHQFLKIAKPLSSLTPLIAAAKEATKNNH

COc1cccc(-c2oncc2CN2CCN(C(C)=O)CC2)c1 [Compound T813-0242, 1-(4-((5-(3-Methoxyphenyl)isoxazol-4-yl)methyl)piperazin-1-yl)ethanone]
inhibitory activity against any of the other PAK family members [1]: no significant inhibitory activity | microsomal CLint [2]: 34 µL/min/mg | half-life [2]: 81.5 min | ER [2]: 0.53 | CLh [2]: 28.97 | microsomal CLint [3]: 44.4 µL/min/mg | half-life [3]: 62.4 min | ER [3]: 0.66 | CLh [3]: 59.41 | IC50 (PAK1): 900 nM | ER [4]: 0.66 | CLh [4]: 14.31 | microsomal CLint [4]: 38.8 µL/min/mg | half-life [4]: 71.4 min | inhibition against a larger kinase panel (larger kinase panel): no significant inhibition | K el ([5]; IV, 2 mg/kg, mean): 3.03 h⁻¹ | Fabs, % (from AUCINF) ([5]; PO 10 mg/kg versus IV 2 mg/kg): 3.8% | Fabs, % (from AUClast) ([5]; PO 10 mg/kg versus IV 2 mg/kg): 3.8% | K el ([5]; PO, 10 mg/kg, mean): 1.05 h⁻¹ | C0 ([5]; rat, plasma, IV, 2 mg/kg, mean): 3150 ng/mL | Cmax ([5]; rat, plasma, IV, 2 mg/kg, mean): 2210 ng/mL | MRT inf ([5]; rat, plasma, IV, 2 mg/kg, mean): 18 min | Tmax ([5]; rat, plasma, IV, 2 mg/kg, mean): 4.8 min | clearance ([5]; rat, plasma, IV, 2 mg/kg, mean): 36.7 mL/min/kg | MRT last ([5]; rat, plasma, IV, 2 mg/kg, mean): 0.29 h | half-life ([5]; rat, plasma, IV, 2 mg/kg, mean): 13.8 min | CL/F [5, 6]: 974 mL/min/kg | Cmax [5, 6]: 202 ng/mL | MRT inf [5, 6]: 50.4 min | Tmax [5, 6]: 19.8 min | MRT last [5, 6]: 0.75 h | half-life [5, 6]: 41.4 min | Vd/F ([5]; rat, plasma, PO, 10 mg/kg, mean, read-out: Vz/F): 56.2 L/kg | AUC(0-inf) [5, 7]: 911 ng·h/mL | AUC(0-t) [5, 8]: 909 ng·h/mL | Vd [5, 9]: 0.65 L/kg | Vd [5, 10]: 0.73 L/kg | AUC(0-inf) ([5]; rat, plasma, iv, 2 mg/kg, IV, dose 2 mg/kg, summary section, no unit printed there, read-out: AUCINF, IV plasma): 911 ng·h/mL | AUC(0-t) ([5]; rat, plasma, iv, 2 mg/kg, IV, dose 2 mg/kg, summary section, no unit printed there, read-out: AUClast, IV plasma): 909 ng·h/mL | AUC(0-inf) ([5]; rat, plasma, po, 10 mg/kg, PO, 10 mg/kg, mean, read-out: AUCINF): 175 ng·h/mL | AUC(0-t) [5, 11]: 171 ng·h/mL | AUC(0-inf) ([5]; rat, plasma, po, 10 mg/kg, PO, dose 10 mg/kg, summary section, no unit printed there, read-out: AUCINF, PO plasma): 175 ng·h/mL | AUC(0-t) ([5]; rat, plasma, po, 10 mg/kg, PO, dose 10 mg/kg, summary section, no unit printed there, read-out: AUClast, PO plasma): 171 ng·h/mL

CSc1ccc(-c2nc3cccc(C)n3c2Nc2ccc3c(c2)OCCO3)cc1 [Compound C273-0489]
inhibitory activity against any of the other PAK family members [1]: no significant inhibitory activity | microsomal CLint [2]: 1830 µL/min/mg | half-life [2]: 1.51 min | ER [2]: 0.98 | CLh [2]: 54.10 | microsomal CLint [3]: 664 µL/min/mg | half-life [3]: 4.18 min | ER [3]: 0.97 | CLh [3]: 87.00 | IC50 (PAK1): 470 nM | ER [4]: 0.89 | CLh [4]: 19.24 | microsomal CLint [4]: 199 µL/min/mg | half-life [4]: 13.9 min | inhibition against a larger kinase panel (larger kinase panel): no significant inhibition | K el ([5]; IV, 2 mg/kg, mean): 0.07 h⁻¹ | C0 ([5]; rat, plasma, IV, 2 mg/kg, mean): 71.7 ng/mL | Cmax ([5]; rat, plasma, IV, 2 mg/kg, mean): 53.4 ng/mL | MRT inf ([5]; rat, plasma, IV, 2 mg/kg, mean): 736 min | Tmax ([5]; rat, plasma, IV, 2 mg/kg, mean): 4.8 min | clearance ([5]; rat, plasma, IV, 2 mg/kg, mean): 214 mL/min/kg | MRT last ([5]; rat, plasma, IV, 2 mg/kg, mean): 6.51 h | half-life ([5]; rat, plasma, IV, 2 mg/kg, mean): 636 min | Cmax [5, 6]: 17.4 ng/mL | Tmax [5, 6]: 200 min | MRT last [5, 6]: 3.97 h | AUC(0-inf) [5, 7]: 156 ng·h/mL | AUC(0-t) [5, 8]: 129 ng·h/mL | Vd [5, 9]: 158 L/kg | Vd [5, 10]: 197 L/kg | AUC(0-t) [5, 11]: 92.7 ng·h/mL
